Data: article PMC9106665 (Communications Biology, 2022)
Residue numbers refer to the chain shown, from its start. Values after ≈ are worked out from the molar mass of the structure shown. Like-named read-outs stand apart in the source and are kept apart here.

Assays:
DfrA1 and DfrA5 = type: biochemical, E. coli; conditions: range over DfrA1 and DfrA5
Procedure: (§1) The assay was performed at room temperature using the Shimadzu UV/visible spectrophotometer. A standard reaction buffer contained 20 mM TES, pH 7.0, 50 mM KCl, 10 mM β-mercapthoethanol, 0.5 mM EDTA, and 1 mg/ml BSA. […] All measurements were performed in triplicate, from at least two independent experiments.

[1] = remark limiting MST studies
[2] = system: E. coli BL21(DE3) strain overexpressing DfrA5; assay: Antibacterial activity (MIC); type: cell-based; conditions: Escherichia coli
[3] = system: E. coli JW0451 acrB mutant strain; assay: microbe, parasite or virus in culture; type: cell-based; conditions: for MIC: w/o SMX, 80% inhibition of growth, 18 to 20 hours, 37°C
Procedure: (§2) Preparation, handling of cultures and the antibiotic susceptibility testing was performed according to CLSI guidelines. […] The compounds at the highest concentrations alone and paired with Sulfamethoxazole (1:19 w/w ratio) were then added to the first well before being serially diluted (2-fold) throughout the plate, leaving the last well with broth only (negative growth control). Next, 50 μl of the inoculum was added to each well.

E. coli BW25113 = assay: microbe, parasite or virus in culture; type: cell-based; conditions: for MIC: Escherichia coli, 80% inhibition of growth
Procedure: as §2

DfrA5 [4] = target: T1, DfrA5 (Escherichia coli, UniProt P11731); assay: biochemical; design: species or system E. coli
Procedure: as §1

DfrA5 [5] = target: T1, DfrA5; type: binding, E. coli; design: E. coli dfrA5 gene (UniProtKB:A0A4Y6L037) was synthesized and cloned in pET-24a (+) vector with the same restriction sites; 6xHis tag (C); made in house; host or cells: E. coli BL21(DE3)
Procedure: In all, 200 µg of purified enzyme was preincubated for 18 h without and with a 10× molar excess of the ligand(s) (NADPH, TMP or PLA) in 20 mM Hepes 7.5, 100 mM KCl, 5% glycerol, ±2.0% DMSO and 2 mM DTT buffer. […] Changes in intrinsic fluorescence intensity (measured ratio of absorbance at 350 nm over 330 nm) from tryptophan residues were used to calculate derivatives using the evaluation features provided by the Tycho instrument. The inflection temperature (Ti) as a marker of protein structural integrity was determined by the first derivative of the signal (ratio of 350 nm/330 nm).

EcDHFR L28Q = target: T2, EcDHFR L28Q (Escherichia coli, UniProt P0ABQ4, L28Q); assay: Enzyme inhibition assay (NADPH oxidation, 340 nm); type: biochemical
T2 construct: using E. coli DHFR template previously synthesized by GeneScript; made in house; host or cells: E. coli BL21(DE3)
T2 sequence (P0ABQ4 1-159 L28Q): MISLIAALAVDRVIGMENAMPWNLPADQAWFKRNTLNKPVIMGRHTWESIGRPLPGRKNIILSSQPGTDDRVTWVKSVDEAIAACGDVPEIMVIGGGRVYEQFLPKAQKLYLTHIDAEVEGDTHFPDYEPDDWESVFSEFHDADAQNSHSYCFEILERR
Procedure: as §1

EcDHFR D27E = target: T3, EcDHFR D27E (Escherichia coli, UniProt P0ABQ4, D27E); assay: Enzyme inhibition assay (NADPH oxidation, 340 nm); type: biochemical
T3 construct: using E. coli DHFR template previously synthesized by GeneScript; made in house; host or cells: E. coli BL21(DE3)
T3 sequence (P0ABQ4 1-159 D27E): T2 sequence (P0ABQ4 1-159 L28Q) with D27E, Q28L
Procedure: as §1

EcDHFR D27E/L28Q = target: T4, EcDHFR D27E/L28Q (Escherichia coli, UniProt P0ABQ4, D27E/L28Q); assay: Enzyme inhibition assay (NADPH oxidation, 340 nm); type: biochemical
T4 construct: using E. coli DHFR template previously synthesized by GeneScript; made in house; host or cells: E. coli BL21(DE3)
T4 sequence (P0ABQ4 1-159 D27E/L28Q): T2 sequence (P0ABQ4 1-159 L28Q) with D27E
Procedure: as §1

[6] = system: E. coli BL21(DE3) strain overexpressing DfrA1; assay: Antibacterial activity (MIC); type: cell-based; conditions: Escherichia coli
[7] = system: E. coli BL21(DE3) strain overexpressing EcDHFR wt; assay: Antibacterial activity (MIC); type: cell-based; conditions: Escherichia coli, w/o SMX
E. coli DHFR (EcDHFR) = target: T5, E. coli DHFR (EcDHFR) (Escherichia coli, UniProt P0ABQ4); assay: biochemical
T5 construct: E. coli DHFR gene (UniProtKB:P0ABQ4) and dfrA1 gene (UniProtKB:A4GRC7) were synthesized and cloned in pET-41a (+) vector; made in house; host or cells: E. coli BL21(DE3)
Procedure: as §1

EcDHFR = target: T6, EcDHFR (Escherichia coli, UniProt P0ABQ4); type: binding
T6 construct: E. coli DHFR gene (UniProtKB:P0ABQ4) and dfrA1 gene (UniProtKB:A4GRC7) were synthesized and cloned in pET-41a (+) vector; made in house; host or cells: E. coli BL21(DE3)
Procedure: (§3) In all, 200 µg of purified enzyme was preincubated for 18 h without and with a 10× molar excess of the ligand(s) (NADPH, TMP or PLA) in 20 mM Hepes 7.5, 100 mM KCl, 5% glycerol, ±2.0% DMSO and 2 mM DTT buffer. […] Changes in intrinsic fluorescence intensity (measured ratio of absorbance at 350 nm over 330 nm) from tryptophan residues were used to calculate derivatives using the evaluation features provided by the Tycho instrument.

DfrA1 = target: T7, DfrA1 (Escherichia coli, UniProt P00382); type: binding, E. coli
T7 construct: dfrA1 gene (UniProtKB:A4GRC7) were synthesized and cloned in pET-41a (+) vector; made in house; host or cells: E. coli BL21(DE3)
T7 sequence (P00382 1-157): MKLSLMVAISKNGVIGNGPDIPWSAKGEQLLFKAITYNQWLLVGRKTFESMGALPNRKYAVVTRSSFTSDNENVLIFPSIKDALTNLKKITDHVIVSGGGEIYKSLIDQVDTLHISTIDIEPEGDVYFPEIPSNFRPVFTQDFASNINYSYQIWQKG
Procedure: as §3

[8] = binary complex, 10× molar excess of ligand

In the case of `CCc1nc(N)nc(N)c1C#CC(C)c1cc(-c2ccc(C(N)=O)cc2)ccc1Cl` (centres unmarked) [UCP1228], the “fold loss of activity against DfrA1 and DfrA5 compared to EcDHFR” value (DfrA1 and DfrA5) is reported as 10–14 fold, the solubility [1] is reported as “low” and the MIC ([2]; w/ SMX (1:19)) is reported as 20 µg/mL (≈ 47.6 µM). The MIC ([2]; w/o SMX) was > 20 µg/mL, the “Fold difference in MIC” value ([3]; BW25113 w/o SMX vs JW0451 w/o SMX) was 8 and the MIC ([3]; Escherichia coli) was 1.25 µg/mL (≈ 2.98 µM). For the same compound, the MIC [3] was 0.625 µg/mL (≈ 1.49 µM), the “Fold difference in MIC” value (E. coli BW25113; BW25113 w/o SMX vs w/ SMX) was 16 and the MIC (E. coli BW25113; BW25113, w/ SMX (1:19)) was 0.625 µg/mL (≈ 1.49 µM). For the same compound, the MIC (E. coli BW25113; BW25113, w/o SMX, 18 to 20 hours, 37°C) was 10 µg/mL (≈ 23.8 µM), the Ki (DfrA5 [4]) was 20.1 ± 0.39 nM and the “Δ (Ti shift vs apo)” value (DfrA5 [5]; [8]) was 3.7 °C. For the same compound, the Ti (DfrA5 [5]; ternary complex, +NADPH) was 77.3 ± 4.7 °C, the “Δ (Ti shift vs apo)” value (DfrA5 [5]; ternary complex, +NADPH) was 11 °C and the Ki (EcDHFR L28Q) was 10.5 ± 0.69 nM. For the same compound, the Ki (EcDHFR D27E) was 11.8 ± 0.4 nM, the “fold increase in Ki over EcDHFR” value (EcDHFR D27E; D27E substitution) was 4 fold and the Ki (EcDHFR D27E/L28Q) was 189 ± 5.36 nM. The “fold loss in affinities relative to EcDHFR” value (EcDHFR D27E/L28Q; combinatorial mutant D27E/L28Q) was 69 fold, the MIC ([6]; w/ SMX (1:19)) was 20 µg/mL (≈ 47.6 µM) and the MIC ([6]; w/o SMX) was > 20 µg/mL. The MIC [7] was 20 µg/mL (≈ 47.6 µM), the Ki (E. coli DHFR (EcDHFR)) was 2.73 ± 0.09 nM and the “Ti 1” value (EcDHFR; [8]) was 65.5 ± 4.6 °C. The “Ti 2” value (EcDHFR; [8]) was 76.5 ± 2.5 °C, the “Δ1 (Ti shift vs apo)” value (EcDHFR; [8]) was 15.9 °C and the “Δ2 (Ti shift vs apo)” value (EcDHFR; [8]) was 16.3 °C. For the same compound, the “Ti 1” value (EcDHFR; ternary complex, +NADPH) was 64.3 ± 0.1 °C, the “Ti 2” value (EcDHFR; ternary complex, +NADPH) was 75.7 ± 1.6 °C and the “Δ1 (Ti shift vs apo)” value (EcDHFR; ternary complex, +NADPH) was 14.7 °C. The “Δ2 (Ti shift vs apo)” value (EcDHFR; ternary complex, +NADPH) was 15.5 °C, the Ti (DfrA1; [8]) was 55.4 ± 1.7 °C and the “Δ (Ti shift vs apo)” value (DfrA1; [8]) was 5.6 °C. For the same compound, the Ti (DfrA1; ternary complex, +NADPH) was 66.5 ± 3.3 °C and the “Δ (Ti shift vs apo)” value (DfrA1; ternary complex, +NADPH) was 16.7 °C.
